Reference: US20210137941A1 (ZARODEX THERAPEUTICS LIMITED, priority 2018, published 2021)

Assays:
[1] = no clear dose-dependent relationship; not significant beyond 30 days; cited from earlier work
IgE = conditions: cited from earlier work
CD20 = molecular target: T1, CD20 (Homo sapiens, UniProt P11836); conditions: cited from earlier work
T1 construct: host or cells: patients' own B cells
T1 sequence (P11836 1-297): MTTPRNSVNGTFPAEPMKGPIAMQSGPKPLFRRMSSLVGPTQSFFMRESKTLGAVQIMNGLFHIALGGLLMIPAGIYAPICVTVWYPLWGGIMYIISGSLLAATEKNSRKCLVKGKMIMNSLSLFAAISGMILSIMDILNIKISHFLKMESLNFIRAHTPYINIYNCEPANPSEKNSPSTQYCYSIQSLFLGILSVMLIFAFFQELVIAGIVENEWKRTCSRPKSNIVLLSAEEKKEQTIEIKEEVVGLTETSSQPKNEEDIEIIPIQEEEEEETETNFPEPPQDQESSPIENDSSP

[2] = system: bone marrow B cell subsets; assay: Wild type mouse study: bone marrow B cell immunophenotyping by flow cytometry; assay type: in vivo, C57BL/6 mice; conditions: 1 mg/kg IP, 21 days
[3] = system: splenic B cell and T cell populations; assay: Wild type mouse study: spleen immunophenotyping by flow cytometry; assay type: in vivo, C57BL/6 mice
[4] = system: circulating immunoglobulins; assay: Wild type mouse study: circulating immunoglobulin profile by ELISA; assay type: in vivo, C57BL/6 mice; conditions: clozapine 5 and 10 mg/kg, haloperidol 1 mg/kg, IP 21 days; FIG. 24

Chain of IgE (P01854 1-425 limits assumed): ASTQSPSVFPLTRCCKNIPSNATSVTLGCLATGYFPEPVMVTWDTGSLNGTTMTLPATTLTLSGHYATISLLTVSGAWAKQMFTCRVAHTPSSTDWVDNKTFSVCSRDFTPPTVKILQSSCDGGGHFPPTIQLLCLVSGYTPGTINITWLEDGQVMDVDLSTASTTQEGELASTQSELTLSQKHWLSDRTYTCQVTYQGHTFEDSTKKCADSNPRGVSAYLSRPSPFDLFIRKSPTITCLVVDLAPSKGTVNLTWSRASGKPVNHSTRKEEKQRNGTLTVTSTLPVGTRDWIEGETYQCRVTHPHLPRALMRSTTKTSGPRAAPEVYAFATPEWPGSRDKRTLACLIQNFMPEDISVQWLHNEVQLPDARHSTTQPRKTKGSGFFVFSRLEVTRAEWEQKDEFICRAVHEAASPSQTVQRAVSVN

Compound: Cc1nc2n(c(=O)c1CCN1CCC(c3noc4cc(F)ccc34)CC1)CCCC2 [risperidone]
- risk of pneumonia requiring hospitalization [1]: modestly increased risk

Compound: Cc1cc2c(s1)Nc1ccccc1N=C2N1CCN(C)CC1 [olanzapine]
- risk of pneumonia requiring hospitalization [1]: modestly increased risk

Compound: OCCOCCN1CCN(C2=Nc3ccccc3Sc3ccccc32)CC1 [quetiapine]
- risk of pneumonia requiring hospitalization [1]: modestly increased risk

Compound: omalizumab: humanised monoclonal anti-IgE antibody
- treatment of refractory chronic spontaneous urticaria (IgE; 2 phase II and 4 phase III trials (Chang et al., 2015)): efficacious and safe
- clinical efficacy in allergic rhinitis (IgE; Holgate et al., 2005, Tsabouri et al., 2014): clinically effective
- effect in refractory/relapsing Churg-Strauss syndrome (IgE; Jachiet et al., 2016): corticosteroid-sparing effect
- efficacy in atopic individuals with coexisting eye disease (IgE; Kopp et al., 2009): has shown efficacy
- burden of asthma symptoms (IgE; inner city children and young adults (Busse et al., 2011)): significant reduction
- clinical outcome in eosinophilic oesophagitis (IgE; pilot study (Loizou et al., 2015)): clinical improvement in a proportion of patients

Compound: rituximab: anti-CD-20 antibody used for B cell depletion
- clinical outcome in Churg-Strauss syndrome (CD20; Mohammad et al., 2016): clinically effective in inducing remission or partial responses
- clinical outcome in atopic dermatitis (CD20; Simon et al., 2008): substantial clinical improvement
- reduction of B cells in the skin, atopic dermatitis (CD20; Simon et al., 2008): ~50%
- effect on IgE levels (CD20; van Vollenhoven et al., 2013): modest

Compound: O=C(CCCN1CCC(O)(c2ccc(Cl)cc2)CC1)c1ccc(F)cc1 [haloperidol]
- early developing B cell subsets in bone marrow (overall B, pre-pro B, pro-B) ([2]; FIG. 18): no significant effect
- effect on long-lived plasma cells in the bone marrow ([2]; FIG. 20): no effect
- activated T cells (B220+TCR-beta+) in spleen vs control ([3]; clozapine 2.5-10 mg/kg, haloperidol 1 mg/kg, IP 21 days, FIG. 21): modestly apparent
- impact on B cell subpopulations ([3]; comparator, 1 mg/kg IP, 21 days): not observed
- circulating IgA levels compared to control [4]: not observed
